Results reported in BindingDB's records for PubMed 33333396 (National University of Ireland Galway, 2021).

What was measured:
[1] = target: T1, Bcl-2 homologous antagonist/killer (Homo sapiens, UniProt Q16611); experiment: Binding affinity to Bak/Mcl-1 (unknown origin) protein protein interaction by fluorescence polarization assay
T1 sequence (Q16611 whole entry): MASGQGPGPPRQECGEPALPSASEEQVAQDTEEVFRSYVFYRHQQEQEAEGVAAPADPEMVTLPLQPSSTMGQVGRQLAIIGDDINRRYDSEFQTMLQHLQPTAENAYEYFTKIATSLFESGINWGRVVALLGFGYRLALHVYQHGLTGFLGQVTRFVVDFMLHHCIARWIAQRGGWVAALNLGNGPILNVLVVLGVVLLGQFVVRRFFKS

[2] = target: T1, Bcl-2 homologous antagonist/killer; experiment: Inhibition of Mcl-1/Bak (unknown origin)

Structure (SMILES)	Ki [1]	IC50 [2]
CC(C)Oc1cc(C(=O)Nc2ccc(C(=O)Nc3ccc(C(=O)O)cc3OC(C)C)nc2OC(C)C)ccc1N	1.79 µM	
Cc1cc2c(C(=O)NC(C)c3ccc(Cl)cc3)c(O)c(O)cc2c(O)c1-c1c(C)cc2c(C(=O)NC(C)c3ccc(Cl)cc3)c(O)c(O)cc2c1O (configuration not stated) [Apogossypol derivative, 8k]		0.23 µM
